Laboratory results: patent publication US12029748B2, “Synergistic composition for maintenance of healthy balance of microflora” (KIMBERLY-CLARK WORLDWIDE, INC., priority 2017, dated 2024)
Where a SMILES comes first, the peptide text is derived from it.

Assays:
[1] = Initial pH screening of the composition; type: physicochemical; conditions: for I pH (initial pH), 0.10%: nitrogen compound 0.10 wt/vol % with 1.0 wt/vol % α methyl-D glucoside in medium; for I pH (initial pH), 0.50%: nitrogen compound 0.50 wt/vol % with 1.0 wt/vol % α methyl-D glucoside in medium; for I pH (initial pH), 1.00%: nitrogen compound 1.00 wt/vol % with 1.0 wt/vol % α methyl-D glucoside in medium
Excerpt: Each composition in Table 1 went through initial screening measures of solubility and initial pH (“I pH”). […] When a specific concentration of a nitrogen containing compound was insoluble, the initial and final pH (“F pH”) of the combined composition was not measured and accordingly are each marked as “NM.” Additionally, initial pH of the composition was checked as a screening measure. The initial pH was marked as either Low (“L”), High (“H”), or Pass (“P”). A Low initial pH corresponds to an initial pH being less than 5.5, a High initial pH corresponds to an initial pH being greater than 6.5, and a Pass initial pH corresponds to the pH being at or between 5.5-6.5. […] As part of the Therapeutic Effect Protocol, a final pH was also measured after the compositions that were tested against the Lactobacillus and E. coli.
(§1) All of the ingredients in Table 2 were combined and the pH was adjusted to 6.5. […] To evaluate the effect of various nitrogen containing therapeutic agents on the growth of bacteria, the LAPT-g media, prepared as described above, was supplemented with various nitrogen containing compound therapeutic agents to a final test concentration between 0.1 and 1.0%. As initial screening measures, solubility and initial pH of each composition were checked. If a specific composition was insoluble (as detected by visual indication of precipitates or turbidity), then no further therapeutic efficacy testing was undertaken on that composition. Additionally, if the initial pH of the composition was below 5.5 (“Low”) or was above 6.5 (“High”), then no further therapeutic efficacy testing was undertaken on that composition.

L. crispatus and E. coli = experiment: Therapeutic Effect Protocol: L. crispatus / E. coli co-culture, ratio after 36 hours; type: cell-based, Lactobacillus crispatus; E. coli; conditions: for Therapeutic Efficacy Results (Lactobacillus/E. coli) 0.10%: nitrogen compound 0.10 wt/vol % with 1.0 wt/vol % α methyl-D glucoside (10:1); for Therapeutic Efficacy Results (Lactobacillus/E. coli) 0.10% / Therapeutic Efficacy Results (Lactobacillus/E. coli) 0.50% / Therapeutic Efficacy Results (Lactobacillus/E. coli) 1.00%: 36 hours anaerobic co-culture, 37° C.; for Therapeutic Efficacy Results (Lactobacillus/E. coli) 0.50%: nitrogen compound 0.50 wt/vol % with 1.0 wt/vol % α methyl-D glucoside (2:1); for Therapeutic Efficacy Results (Lactobacillus/E. coli) 1.00%: nitrogen compound 1.00 wt/vol % with 1.0 wt/vol % α methyl-D glucoside (1:1); for Therapeutic effect when ratio α methyl-D glucoside : nitrogen compound is at least about 2:1, but not at 1:1 / Therapeutic effect at ratio 2:1 and 10:1, but not at 1:1: with α methyl-D glucoside; for Therapeutic effect when ratio α methyl-D glucoside : nitrogen compound is at least about 2:1, but not at 1:1: ratio at least about 2:1, not 1:1; for Therapeutic effect at ratio 2:1 and 10:1, but not at 1:1: ratios 2:1 and 10:1, not 1:1
Procedure: As used herein the term “therapeutic effect” refers to the ability of the compositions and formulations of the present invention to stimulate the growth of Lactobacillus relative E. coli measured according to the Therapeutic Effect Protocol described below. Generally, therapeutic effect is expressed as a ratio of Lactobacillus to E. coli and is desirably greater than about 2, more preferably greater than about 20 and more desirably greater than about 100.
The data in Table 1 was tested according to the Therapeutic Effect Protocol as described further herein. The nitrogen compounds were tested for their therapeutic efficacy at three different concentrations when combined with α methyl-D glucoside (1% wt/vol %). The concentrations of the nitrogen containing compounds that were tested were 1% wt/vol %, 0.5% wt/vol %, and 0.1% wt/vol %.
Colonies of L. crispatus and E. coli were prepared as follows. A colony of L. crispatus was transferred to 7 ml de Man, Rogosa & Sharpe (MRS) broth and incubated anaerobically (using BD GasPak EZ anaerobe container system with indicator) at 37° C. without shaking for 18-20 hours. A colony of E. coli was transferred to 5 ml Tryptic Soy Broth (TSB) and incubated aerobically (shaking at 100 rpm) at 37° C. for 18-20 hours.
Colonies were then inoculated as follows. Bacterial cultures were gently vortexed and 1 mL of each culture was transferred to a corresponding 2.0 mL micro-centrifuge tube and then centrifuged for two minutes at 14,500 rpm. The cultural supernatant was removed and the cell pellet was re-suspended in 1 mL of 0.95% (wt/vol %) saline. […] For L. crispatus, the pellet was re-suspended in 1 mL of 0.95% saline to achieve ˜10^7-10^8 cfu/mL. For E. coli, the pellet was re-suspended in 1 mL of 0.95% saline to achieve ˜10^8-10^9 cfu/mL.
Media were prepared as follows.
as §1
Five milliliters (5 mL) of each medium was transferred to a test tube in duplicates for subsequent inoculation. A master mixture of L. crispatus and E. coli, prepared as described above, was prepared in 1,000:1 ratio. Each (5 ml) test tube was inoculated with the master mixture to give 10^5-10^6 total CFU L. crispatus and 100-1,000 total CFU E. coli per tube.
To establish a negative control, one tube was vortexed and 100 μL was removed to determine the initial cell concentrations by serial dilutions and plating (2 plates per dilution). L. crispatus is selected on MRS agar plates incubated anaerobically at 37° C. for two days. E. coli is selected on TSA plates incubated aerobically at 37° C. for one day. The co-cultures were incubated in an anaerobic container with BD GasPaks at 37° C. for 36 hours.
The effect of the α methyl-D glucoside and the nitrogen containing compound therapeutic agents on the ratio of L. crispatus to E. coli was measured 36 hours after inoculation and a final pH of the test solutions was recorded. The co-culture tube was vortexed and 100 μL was removed to determine the final cell concentrations by serial dilutions and plating (2 plates per dilution). L. crispatus is selected on MRS agar plates incubated anaerobically at 37° C. for two days.

| SMILES | I pH (initial pH), 0.10% [1] | I pH (initial pH), 0.50% [1] | I pH (initial pH), 1.00% [1] | Therapeutic Efficacy Results (Lactobacillus/E. coli) 0.10% (L. crispatus and E. coli) | Therapeutic Efficacy Results (Lactobacillus/E. coli) 0.50% (L. crispatus and E. coli) | Therapeutic Efficacy Results (Lactobacillus/E. coli) 1.00% (L. crispatus and E. coli) | Therapeutic effect when ratio α methyl-D glucoside : nitrogen compound is at least about 2:1, but not at 1:1 (L. crispatus and E. coli) | Therapeutic effect at ratio 2:1 and 10:1, but not at 1:1 (L. crispatus and E. coli) |
| --- | --- | --- | --- | --- | --- | --- | --- | --- |
| CC(=O)N[C@H]1C(O)O[C@H](CO)[C@H](O)[C@@H]1O (stereo partly drawn) [N-Acetyl-D-Galactosamine] | P (a Pass initial pH corresponds to the pH being at or between 5.5-6.5) | P (a Pass initial pH corresponds to the pH being at or between 5.5-6.5) | P (a Pass initial pH corresponds to the pH being at or between 5.5-6.5) | 130 | >100 | 0.65 | provided a therapeutic effect | provided a therapeutic effect |
| C[C@H](N)C(=O)N[C@@H](CCC(=O)O)C(=O)O [Ala-Glu] (H-Ala-Glu-OH) | P (a Pass initial pH corresponds to the pH being at or between 5.5-6.5) | L (A Low initial pH corresponds to an initial pH being less than 5.5) | L (A Low initial pH corresponds to an initial pH being less than 5.5) | 10.67 |  |  | provided a therapeutic effect |  |
| CSCC[C@H](NC(=O)CN)C(=O)O [Gly-Met] | P (a Pass initial pH corresponds to the pH being at or between 5.5-6.5) | P (a Pass initial pH corresponds to the pH being at or between 5.5-6.5) | P (a Pass initial pH corresponds to the pH being at or between 5.5-6.5) | 238 | >2343.75 | 0.81 | provided a therapeutic effect | provided a therapeutic effect |
| C[C@H](N)C(=O)N[C@@H](Cc1cnc[nH]1)C(=O)O [Ala-His] (H-Ala-His-OH) | P (a Pass initial pH corresponds to the pH being at or between 5.5-6.5) | P (a Pass initial pH corresponds to the pH being at or between 5.5-6.5) | H (a High initial pH corresponds to an initial pH being greater than 6.5) | >133 | 6.59E+02 |  | provided a therapeutic effect | provided a therapeutic effect |
| NCC(=O)N[C@@H](CC(N)=O)C(=O)O [Gly-Asn] (H-Gly-Asn-OH) | P (a Pass initial pH corresponds to the pH being at or between 5.5-6.5) | P (a Pass initial pH corresponds to the pH being at or between 5.5-6.5) | P (a Pass initial pH corresponds to the pH being at or between 5.5-6.5) | 108 | >1.58E+04 | 1.3 | provided a therapeutic effect | provided a therapeutic effect |
| C[C@H](N)C(=O)N[C@@H](CC(=O)O)C(=O)O [Ala-Asp] (H-Ala-Asp-OH) | P (a Pass initial pH corresponds to the pH being at or between 5.5-6.5) | L (A Low initial pH corresponds to an initial pH being less than 5.5) | L (A Low initial pH corresponds to an initial pH being less than 5.5) | >100 |  |  | provided a therapeutic effect |  |
| CC(C)[C@H](N)C(=O)O [L-Valine] | P (a Pass initial pH corresponds to the pH being at or between 5.5-6.5) | P (a Pass initial pH corresponds to the pH being at or between 5.5-6.5) | P (a Pass initial pH corresponds to the pH being at or between 5.5-6.5) | 1.34 | 0.38 | 1.01 |  |  |
| NC(=O)CC[C@H](N)C(=O)O [L-Glutamine] | P (a Pass initial pH corresponds to the pH being at or between 5.5-6.5) | P (a Pass initial pH corresponds to the pH being at or between 5.5-6.5) | P (a Pass initial pH corresponds to the pH being at or between 5.5-6.5) | >161 | 1.28 | 0.53 | provided a therapeutic effect |  |
| C[C@H](N)C(=O)O [L-Alanine] | P (a Pass initial pH corresponds to the pH being at or between 5.5-6.5) | P (a Pass initial pH corresponds to the pH being at or between 5.5-6.5) | P (a Pass initial pH corresponds to the pH being at or between 5.5-6.5) | 1.5 | 1.52 | 1.3 |  |  |
| CSCC[C@H](N)C(=O)N[C@@H](C)C(=O)O [Met-Ala] (H-Met-Ala-OH) | P (a Pass initial pH corresponds to the pH being at or between 5.5-6.5) | L (A Low initial pH corresponds to an initial pH being less than 5.5) | L (A Low initial pH corresponds to an initial pH being less than 5.5) | 7.33 |  |  | provided a therapeutic effect |  |
| Cl.N[C@@H]1C(O)O[C@H](CO)[C@@H](O)[C@@H]1O (stereo partly drawn) [D-mannosamine HCl] | P (a Pass initial pH corresponds to the pH being at or between 5.5-6.5) | P (a Pass initial pH corresponds to the pH being at or between 5.5-6.5) | P (a Pass initial pH corresponds to the pH being at or between 5.5-6.5) | 0.202 | 84 | 0.96 | provided a therapeutic effect |  |
